From patent publication US9718773B2, “Substituted 5 membered heterocyclic compounds and preparation thereof” (Council of Scientific and Industrial Research, priority 2014, dated 2017)
Read-outs that look alike come from different tables or passages of the source.

Legend:
[1] = tested on: Mycobacterium smegmatis MC^2155 strain; assay: Anti-mycobacterial growth inhibition assay (turbidometry, 96 well plate); format: cell-based; conditions: Mycolicibacterium smegmatis
Protocol: Anti-Mycobacterial Activity Assay:
Anti-mycobacterial activity of the synthesized compounds was performed with Mycobacterium smegmatis MC^2155 strain by performing a growth inhibition assay by agar dilution followed turbidometry method. The assay was semi-throughput and conducted in a 96 well plate (sterile). Isolated single colonies of M. smegmatis MC^2 155 (ATCC 14468) grown on 7H10 agar plate were grown overnight in Middlebrook 7H9 medium (0.47% Middlebrook 7H9 broth base, 10% ADS, 0.2% glycerol, and 0.1% Tween-80) to mid exponential phase at 37° C. When the OD of this culture reached approximately 0.8, a secondary culture was inoculated in 5 ml Middlebrook 7H9 medium. The secondary culture was incubated overnight and allowed to grow at 37° C. to early log phase (OD600≈0.3). For the anti-mycobacterial assay, 98 μl of 1:1000-folds dilution of secondary culture was dispensed into 96-well microtiter plate per well along with 2 μl of test compound in triplicate. 240 μl of sterile water were added to each well of the peripheral rows of 96-well plate to minimize media evaporation during assay incubation. The final concentration of the test compound in each well was 30 μM. Bacterial growth was assessed after 32 hours of incubation by measuring turbidity at 600 nm OD600 values using TECAN Infinite 200 PRO™ (Tecan Instruments, Switzerland). Depending upon the percentage of growth, the percentage of inhibition was calculated at the standard concentration of 30 μM. Isoniazid and Rifampicin were included in every assay plate as positive controls of growth inhibition using stock solutions of INH (10 mg/mL, HiMedia) and Rifampicin (10 mg/mL, HiMedia) to achieve the final concentration of 16 μg/mL for INH and 2 μg/mL for Rifampicin. Additional controls, DMSO (solvent without compound) and medium without inoculums, were included in all the assay plates avoiding intra assay variability. The results were analyzed as the percentage of growth inhibition.

[2] = ATCC14468|MC^2155, test compound 30 μM, bacterial growth after 32 hours by OD600, M. smegmatis MC^2 155 (ATCC 14468), read-out: % Inhibition

melting point	Structure (SMILES)	also measured
136 to 139 °C	Cc1ccc(S(=O)(=O)N2C[C@H]([C@@H](NC(=O)OC(C)(C)C)c3ccco3)[C@H](O)C2)cc1	
207 to 211 °C	Cc1ccc(S(=O)(=O)N2C[C@H]3[C@@H](C2)OC(=O)N[C@H]3c2ccc(F)cc2)cc1	
197 to 200 °C	Cc1ccc(S(=O)(=O)N2C[C@H]([C@@H](NC(=O)OC(C)(C)C)c3ccccc3)[C@H](O)C2)cc1 [Ia, tert-butyl ((R)-((3R,4S)-4-hydroxy-1-tosylpyrrolidin-3-yl)(phenyl)methyl)carbamate]	
209 to 211 °C	CSc1ccc([C@H](NC(=O)OC(C)(C)C)[C@H]2CN(S(=O)(=O)c3ccc(C)cc3)C[C@H]2O)cc1 [Ii, tert-Butyl ((R)-((3R, 4S)-4-hydroxy-1-tosylpyrrolidin-3-yl)(4-(methylthio)phenyl)methyl)carbamate]	
187 to 190 °C	Cc1ccc([C@H](NC(=O)OC(C)(C)C)[C@H]2CN(S(=O)(=O)c3ccc(C)cc3)C[C@H]2O)cc1 [Id, tert-butyl ((R)-((3R,4S)-4-hydroxy-1-tosylpyrrolidin-3-yl)(p-tolyl)methyl)carbamate]	
153 to 156 °C	Cc1ccc(S(=O)(=O)N2C[C@H]3[C@@H](C2)OC(=O)N[C@H]3c2ccc3ccccc3c2)cc1 [Ie, (4R,4aR,7aS)-4-(naphthalen-2-yl)-6-tosylhexahydropyrrolo[3,4-e][1,3]oxazin-2(3H)-one]	
148 to 150 °C	CCOC(=O)C[C@@H]1[C@@H](C(NC(=O)OC(C)(C)C)c2ccc(F)cc2)CN(S(=O)(=O)c2ccc(C)cc2)[C@@H]1C(=O)OCC (stereo partly shown)	
186 to 189 °C	Cc1ccc(S(=O)(=O)N2C[C@H]([C@@H](NC(=O)OC(C)(C)C)c3cccs3)[C@H](O)C2)cc1 [Ij, tert-Butyl ((R)-((3R, 4S)-4-hydroxy-1-tosylpyrrolidin-3-yl)(thiophen-2-yl)methyl) carbamate]	
203 to 205 °C	Cc1ccc(S(=O)(=O)N2C[C@H]([C@@H](NC(=O)OC(C)(C)C)c3ccc(Cl)cc3)[C@H](O)C2)cc1 [Ib, tert-butyl ((R)-(4-chlorophenyl)((3R,4S)-4-hydroxy-1-tosylpyrrolidin-3-yl)methyl)carbamate]	
210 to 213 °C	Cc1ccc(S(=O)(=O)N2C[C@H]3[C@@H](C2)OC(=O)N[C@H]3c2ccc(Br)cc2)cc1 [If, (4R, 4aR, 7aS)-4-(4-Bromophenyl)-6-tosylhexahydropyrrolo [3,4-e][1,3]oxazin-2(3H)-one]	
177 to 178 °C	CCOC(=O)C[C@@H]1[C@@H](C(NC(=O)OC(C)(C)C)c2ccc(C)cc2)CN(S(=O)(=O)c2ccc(C)cc2)[C@@H]1C(=O)OCC (stereo partly shown)	
202 to 204 °C	Cc1ccc(S(=O)(=O)N2C[C@H]([C@@H](NC(=O)OC(C)(C)C)c3ccc(C(F)(F)F)cc3)[C@H](O)C2)cc1 [Ic, tert-butyl ((R)-((3R,4S)-4-hydroxy-1-tosylpyrrolidin-3-yl)(4-(trifluoromethyl)phenyl)methyl)carbamate]	

Further lines, the molecule ahead of its results:

Structure (SMILES)	melting point	also measured
CCOC(=O)C[C@@H]1[C@@H]([C@@H](NC(=O)OC(C)(C)C)c2ccc(F)cc2)CN(S(=O)(=O)c2ccc(C)cc2)[C@@H]1C(=O)OCC [IG, ethyl (2S,3R,4R)-4-((R)-((tert-butoxycarbonyl)amino)(4-fluorophenyl)methyl)-3-(2ethoxy-2-oxoethyl)-1-tosylpyrrolidine-2-carboxylate]		inhibition at 30 µM ([1]; ATCC14468|MC^2155, 32 h): 18.2%
CCOC(=O)C[C@@H]1[C@@H](C(NC(=O)OC(C)(C)C)c2ccc(C(F)(F)F)cc2)CN(S(=O)(=O)c2ccc(C)cc2)[C@@H]1C(=O)OCC (stereo partly shown) [IC]		inhibition at 30 µM ([1]; ATCC14468|MC^2155, 32 h): 0.493%
CCOC(=O)C[C@@H]1[C@@H](C(NC(=O)OC(C)(C)C)c2ccc(Br)cc2)CN(S(=O)(=O)c2ccc(C)cc2)[C@@H]1C(=O)OCC (stereo partly shown)	161 to 163 °C	
CCOC(=O)C[C@H]1CN(C(=O)OC(C)C)N(C(=O)OC(C)C)[C@@H]1Cc1ccc(SC)cc1 [2g, Diisopropyl (3R,4S)-4-(2-ethoxy-2-oxoethyl)-3-(4-(methylthio)benzyl)pyrazolidine-1,2-dicarboxylate]		inhibition at 30 µM [1, 2]: 24.9%
CCOC(=O)C[C@@H]1[C@@H](C(NC(=O)OC(C)(C)C)c2ccccc2)CN(S(=O)(=O)c2ccc(C)cc2)[C@@H]1C(=O)OCC (stereo partly shown) [IA]		inhibition at 30 µM ([1]; ATCC14468|MC^2155, 32 h): 13.5%
CCOC(=O)C[C@H]1CN(C(=O)OC(C)C)N(C(=O)OC(C)C)[C@@H]1Cc1cc2c(cc1[N+](=O)[O-])OCO2 [2i, Diisopropyl(3R,4S)-4-(2-ethoxy-2-oxoethyl)-3-((6-nitrobenzo[d][1,3]dioxol-5-yl)methyl)pyrazolidine-1,2-dicarboxylate]		inhibition at 30 µM [1, 2]: 29.3%
CCOC(=O)C[C@@H]1[C@@H](C(NC(=O)OC(C)(C)C)c2ccc3ccccc3c2)CN(S(=O)(=O)c2ccc(C)cc2)[C@@H]1C(=O)OCC (stereo partly shown)	160 to 161 °C	
CCOC(=O)C[C@H]1CN(C(=O)OC(C)C)N(C(=O)OC(C)C)[C@@H]1Cc1ccc(OC)cc1 [2e, Diisopropyl (3R,4S)-4-(2-ethoxy-2-oxoethyl)-3-(4-methoxybenzyl)pyrazolidine-1,2-dicarboxylate]		inhibition at 30 µM [1, 2]: 14%
CCOC(=O)C[C@@H]1[C@@H](C(NC(=O)OC(C)(C)C)c2ccccc2)CN(S(=O)(=O)c2ccc(C)cc2)[C@@H]1C(=O)OCC (stereo partly shown)	150 to 151 °C	
CCOC(=O)C[C@@H]1[C@@H](C(NC(=O)OC(C)(C)C)c2ccc3ccccc3c2)CN(S(=O)(=O)c2ccc(C)cc2)[C@@H]1C(=O)OCC (stereo partly shown) [IE]		inhibition at 30 µM ([1]; ATCC14468|MC^2155, 32 h): 20.7%
CCOC(=O)C[C@@H]1[C@@H](C(NC(=O)OC(C)(C)C)c2ccc(Cl)cc2)CN(S(=O)(=O)c2ccc(C)cc2)[C@@H]1C(=O)OCC (stereo partly shown)	155 to 156 °C	
CCOC(=O)C[C@@H]1[C@@H](C(NC(=O)OC(C)(C)C)c2ccc(C(F)(F)F)cc2)CN(S(=O)(=O)c2ccc(C)cc2)[C@@H]1C(=O)OCC (stereo partly shown)	169 to 170 °C	
CCOC(=O)C[C@@H]1[C@@H](C(NC(=O)OC(C)(C)C)c2ccc(Br)cc2)CN(S(=O)(=O)c2ccc(C)cc2)[C@@H]1C(=O)OCC (stereo partly shown) [IF]		inhibition at 30 µM ([1]; ATCC14468|MC^2155, 32 h): 10.8%
